The source made the active and inactive calls. The calls are words filed in the database; no cut-off is given here.

The test system of series [1] is HUVEC. As to the kind of experiment: Cytoprotective activity against oxLDL-induced HUVEC cell damage assessed as increase in cell viability at 10 uM by SRB assay. Type of series: functional, cell-based. Particulars: Homo sapiens. A general note: In SRB staining, fixed cells bind dye roughly in proportion to their protein.
In series [2] the target is T1, Nuclear factor erythroid 2-related factor 2 (Homo sapiens) (UniProt Q16236).
T1 sequence (whole entry): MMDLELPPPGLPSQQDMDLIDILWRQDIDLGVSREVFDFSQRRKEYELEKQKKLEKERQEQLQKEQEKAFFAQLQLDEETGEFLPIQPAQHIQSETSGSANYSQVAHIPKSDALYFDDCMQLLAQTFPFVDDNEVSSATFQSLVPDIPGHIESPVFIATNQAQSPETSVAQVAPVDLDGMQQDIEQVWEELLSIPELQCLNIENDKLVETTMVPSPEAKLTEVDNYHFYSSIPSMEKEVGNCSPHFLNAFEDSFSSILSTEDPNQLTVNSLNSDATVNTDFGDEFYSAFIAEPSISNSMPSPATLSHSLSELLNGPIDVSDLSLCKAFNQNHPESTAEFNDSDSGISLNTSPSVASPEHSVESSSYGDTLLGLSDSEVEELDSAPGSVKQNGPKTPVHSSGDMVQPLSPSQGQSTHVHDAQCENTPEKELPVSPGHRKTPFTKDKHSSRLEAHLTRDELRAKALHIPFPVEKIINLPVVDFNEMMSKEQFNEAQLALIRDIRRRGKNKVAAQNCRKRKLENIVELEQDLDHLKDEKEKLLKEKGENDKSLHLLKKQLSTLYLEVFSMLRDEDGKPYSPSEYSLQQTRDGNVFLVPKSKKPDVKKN
As to the kind of experiment: Induction of Nrf2/ARE activation in human Hela cells at 1 uM measured after 12 to 24 hrs by luciferase reporter gene assay relative to control. Type of series: cell-based. Particulars: filed as activator, time 12-24 hrs. For orientation: A reporter such as luciferase makes a cellular process visible.

Series [3] deals with T1, Nuclear factor erythroid 2-related factor 2 (Homo sapiens). As to the kind of experiment: Induction of Nrf2/ARE activation in human Hela cells at 5 uM measured after 12 to 24 hrs by luciferase reporter gene assay relative to control. Conditions: filed as activator, time 12-24 hrs. The format is cell-based.
Series [4] shares this target. As to the kind of experiment: Induction of Nrf2/ARE activation in human Hela cells at 10 uM measured after 12 to 24 hrs by luciferase reporter gene assay relative to control. Type of series: cell-based. Conditions: filed as activator, time 12-24 hrs.
The target is the same in series [5]. As to the kind of experiment: Induction of Nrf2/ARE activation in human Hela cells at 20 uM measured after 12 to 24 hrs by luciferase reporter gene assay relative to control. Conditions: filed as activator, time 12-24 hrs. Type of series: cell-based.
Series [6] has as its system HUVEC. As to the kind of experiment: Cytoprotective activity against high glucose-induced HUVEC cell damage assessed as increase in cell viability at 10 uM by SRB assay. Particulars: Homo sapiens. Type of series: functional, cell-based.
The subject of series [7] is HUVEC. As to the kind of experiment: Cytoprotective activity against oxLDL-induced apoptosis in HUVEC cells measured after 6 hrs by TUNEL assay. The format is functional, cell-based. Particulars: Homo sapiens, dose 5-10 µM.
Series [8] concerns the target T1, Nuclear factor erythroid 2-related factor 2 (Homo sapiens). As to the kind of experiment: Induction of Nrf2 nuclear translocation in oxLDL-induced HUVEC cells at 5 to 10 uM measured after 6 hrs by immunofluorescence staining analysis. Type of series: cell-based. Particulars: filed as activator, dose 5-10 µM.
Series [9] has the same target. As to the kind of experiment: Induction of Nrf2 nuclear translocation in high glucose-induced HUVEC cells at 5 to 10 uM measured after 24 hrs by immunofluorescence staining analysis. The format is cell-based. Particulars: filed as activator, dose 5-10 µM.
Series [10] relates to HUVEC. As to the kind of experiment: Cytotoxicity against HUVEC assessed as effect on cell viability by SRB assay. Type of series: toxicity, cell-based. Particulars: human.
In series [11] the test system is HUVEC. As to the kind of experiment: Cytoprotective activity against high glucose-induced apoptosis in HUVEC cells measured after 24 hrs by TUNEL assay. The format is functional, cell-based. Particulars: Homo sapiens, dose 5-10 µM.
The subject of series [12] is HUVEC. As to the kind of experiment: Cytoprotective activity against oxLDL-induced apoptosis in HUVEC treated with scambled siRNA at 10 uM measured after 6 hrs by TUNEL assay. The format is functional, cell-based. Particulars: Homo sapiens.
In series [13] the test system is HUVEC. As to the kind of experiment: Cytoprotective activity against oxLDL-induced apoptosis in Nrf2-knockdown HUVEC at 10 uM measured after 6 hrs by TUNEL assay. The format is functional, cell-based. Conditions: Homo sapiens.
The test system of series [14] is HUVEC. As to the kind of experiment: Cytoprotective activity against high glucose induced apoptosis in HUVEC treated with scambled siRNA at 10 uM measured after 24 hrs by TUNEL assay. Type of series: functional, cell-based. Conditions: Homo sapiens.
Series [15] has as its system HUVEC. As to the kind of experiment: Cytoprotective activity against high glucose-induced apoptosis in Nrf2-knockdown HUVEC at 10 uM measured after 24 hrs by TUNEL assay. Type of series: functional, cell-based. Conditions: Homo sapiens.
Series [16] has as its target Keap1/Nrf2 (Homo sapiens) (UniProt Q16236+Q14145). As to the kind of experiment: Inhibition of Keap1-Nrf2 protein-protein interaction (unknown origin) at 100 uM measured after 60 mins by FITC-betaAla-DEETGEF-OH probe based fluorescent polarization assay.

Chain of Keap1/Nrf2 (Homo sapiens) (Q14145 whole entry, looked up, one chain of several): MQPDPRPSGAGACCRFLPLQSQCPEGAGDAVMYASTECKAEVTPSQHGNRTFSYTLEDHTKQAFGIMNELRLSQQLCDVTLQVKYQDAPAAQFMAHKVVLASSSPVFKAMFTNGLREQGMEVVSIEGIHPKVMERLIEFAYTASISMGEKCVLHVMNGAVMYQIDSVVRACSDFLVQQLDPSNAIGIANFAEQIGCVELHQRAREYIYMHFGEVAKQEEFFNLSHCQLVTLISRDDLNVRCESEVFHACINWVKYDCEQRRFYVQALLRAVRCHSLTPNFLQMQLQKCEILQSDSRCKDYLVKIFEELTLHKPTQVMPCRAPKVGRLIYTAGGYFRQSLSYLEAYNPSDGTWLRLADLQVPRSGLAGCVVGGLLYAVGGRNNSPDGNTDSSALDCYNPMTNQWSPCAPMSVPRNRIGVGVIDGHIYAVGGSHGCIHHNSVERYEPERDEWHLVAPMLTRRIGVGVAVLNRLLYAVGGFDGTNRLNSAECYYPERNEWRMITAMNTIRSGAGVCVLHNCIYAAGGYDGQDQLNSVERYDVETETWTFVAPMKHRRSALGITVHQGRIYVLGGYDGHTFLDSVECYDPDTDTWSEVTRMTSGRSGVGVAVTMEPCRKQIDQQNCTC

As to `N#Cc1ccc(CN2CCN(Cc3noc(Cc4c[nH]c5ccccc45)n3)CC2)cc1`, the result in series [1], in [6], in [8] and in [9] was Active. Also, the fold change (FC) in series [2] is 1.38; in series [3] it was 3.14; in series [4] it was 5.88; in series [5], 5.18. Also, the Activity result in [7] was “Dose-Dependent Effect”; in [10], “Non-Toxic”; in series [11], “Dose-Dependent Effect”.

Take `COc1ccc(/C=C/C(=O)N2CCN(Cc3noc(Cc4c[nH]c5ccccc45)n3)CC2)cc1O`: the result in series [1], in series [6], in series [8], in series [9], in [12] and in [14] was Active. The fold change (FC) in [2] was determined as 1.89; in series [3] it was 3.69; in [4], 7.78; in series [5] it was 7.41. The Activity entry was “Dose-Dependent Effect” in series [7], “Non-Toxic” in series [10] and “Dose-Dependent Effect” in [11]. Also, the result in series [13] and in series [15] was inactive. Also, in series [16], the inhibition result is “inactive”.

In the case of `O=C(/C=C/c1cccc(Br)c1)N1CCN(Cc2noc(Cc3c[nH]c4ccccc34)n2)CC1`, the result in [1] was inactive. Also, the fold change (FC) in [2] amounted to 1.31; in series [3], 1.86; in series [4], 3.97; in series [5], 2.56. Further, the Activity result in [10] was “Non-Toxic”.

Source of the values: ChEMBL document CHEMBL5365471, “Discovery of marine phidianidine-based Nrf2 activators and their potential against oxLDL- and HG-induced injury in HUVECs” (Bioorg Med Chem Lett, 2023).
